# Source: US20240376097A1, “BCL-2 Inhibitor” (BeiGene Ltd., priority 2020, published 2024)
# Read-outs that look alike come from different tables or passages of the source.
# What was measured:
# [1] = molecular target: Recombinant human Bcl-2 protein (Homo sapiens (Human), UniProt P10415); test: Bcl-2 TR-FRET Assay; type: binding
# In short: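 0.05 nM recombinant Bcl-2 preincubated 0.5 h at room temperature with 10-point compound dilutions (top final 1, 0.1, 0.02 or 0.01 uM) in pH 7.5 phosphate buffer. FITC-Bak peptide (0.5 nM) and anti-6His Tb cryptate then added for 1 h. TR-FRET read; IC50 from four-parameter logistic fit.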
# [2] = molecular target: recombinant human Bcl-2-G101V protein (Homo sapiens (Human), UniProt P10415, G101V); test: Bcl-2-G101V TR-FRET Assay; type: binding; details: Bcl-2 G101V mutant, TR-FRET; read-out: Biochemical assay (IC50, nM) Bcl-2 G101V
# In short: (§1)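 IC50 values derive from four-parameter logistic fitting of percent inhibition data. That inhibition of ligand binding to Bcl-2-G101V is computed from the 490 nm/520 nm TR-FRET ratio under 337 nm excitation, over a rising compound concentration series.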
# [3] = tested on: recombinant human Bcl-2-G101V protein; test: Bcl-2-G101V TR-FRET Assay; type: binding; details: for Ratio of Bcl-2 G101V/WT: ratio of biochemical IC50 Bcl-2 G101V / Bcl-2 WT; for ratio of IC50 of Bcl-2 G101V/Bcl-2 wt, compared with Example F132b in WO2019210828 and ABT-199 (venetoclax): comparison in words
# In short: as §1
# [4] = tested on: RS4;11 (BCL-2 dependent acute lymphoblastic leukemia cell line); test: RS4;11 Cell Proliferation Assay; type: cell-based; details: Homo sapiens, RS4-11, RS4;11 cells, read-out: Cellular proliferation assay (IC50, nM) RS4
# In short: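 RS4;11 cells, 50,000 per well in RPMI-1640 with 10% FBS, treated 48 h at 37 °C with a 10-point dilution series topping at 1 μM. Viability read by CellTiter-Glo ATP luminescence; mean IC50 reported.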
# [5] = tested on: BCL-2 G101V knock-in cell line H96 (derive from RS4;11); test: Bcl 2-G101V Knock-In RS4;11 Cell Proliferation Assay; type: cell-based; details: Homo sapiens, RS4;11 Bcl-2 G101V knock-in clone H96, 48 hrs, CellTiter-GLO, read-out: Cellular proliferation assay (IC50, nM) RS4
# In short: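 H96, a CRISPR-generated RS4;11 clone carrying BCL2-G101V knock-in (WES/RNA-seq validated), seeded 50,000 per well and exposed 48 h at 37 °C to 10-point dilutions topping at 1 or 10 μM. Viability by CellTiter-Glo luminescence; mean IC50.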
# [6] = molecular target: recombinant human Bcl-2 D103Y protein (Homo sapiens (Human), UniProt P10415, D103Y); test: Bcl-2-D103Y Biochemical Assay (TR-FRET); type: binding; details: for IC50: TR-FRET, FITC labeled Bak peptide; for Ratio of Bcl-2 D103Y/Bcl-2 WT: ratio of IC50; for ratio of Bcl-2 D103Y/Bcl-2 wt, compared with F91b in WO2019210828: comparison in words
# In short: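 Recombinant human Bcl-2 D103Y binding to its ligand measured by TR-FRET (ex 337 nm, em 490/520 nm) with increasing compound concentrations. Percent inhibition from the 490/520 nm ratio; IC50 from four-parameter logistic fit.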
# [7] = Bcl-2 wild type, TR-FRET, read-out: Biochemical assay (IC50, nM) Bcl-2 WT
# [8] = wild type Bcl-2, unit inferred, read-out: Bcl-2 WT
SMILES,"IC50 [1, 7] [nM]","IC50 [1, 8] [nM]",IC50 [2] [nM],Ratio of Bcl-2 G101V/WT [3],IC50 [4] [nM],IC50 [5] [nM],IC50 [6] [nM],Ratio of Bcl-2 D103Y/Bcl-2 WT [6],"ratio of IC50 of Bcl-2 G101V/Bcl-2 wt, compared with Example F132b in WO2019210828 and ABT-199 (venetoclax) [3]","ratio of Bcl-2 D103Y/Bcl-2 wt, compared with F91b in WO2019210828 [6]"
"CC(C)c1ccccc1C1CN(C2CCOCC2)CCN1C1CC2(CCN(c3ccc(C(=O)NS(=O)(=O)c4ccc(NC[C@H]5CC[C@](C)(O)CC5)c([N+](=O)[O-])c4)c(Oc4cnc5[nH]ccc5c4)c3)CC2)C1 (stereo partly drawn) [Example 10, 2-((1H-pyrrolo[2,3-b]pyridin-5-yl)oxy)-N-((4-((((1r,4r)-4-hydroxy-4-methylcyclohexyl)methyl)amino)-3-nitrophenyl)sulfonyl)-4-(2-(2-(2-isopropylphenyl)-4-(tetrahydro-2H-pyran-4-yl)piperazin-1-yl)-7-azaspiro[3.5]nonan-7-yl)benzamide]",0.012,0.012,0.21,17.5,0.42,3.16,0.12,10,–,–
"COCCN1CCN(C2CC3(CCN(c4ccc(C(=O)NS(=O)(=O)c5cc6c(c([N+](=O)[O-])c5)N[C@H](C[C@H]5CC[C@H](O)CC5)CO6)c(Oc5cnc6[nH]ccc6c5)c4)CC3)C2)C(c2ccccc2C(C)C)C1 (stereo partly drawn) [Example 14, 2-((1H-pyrrolo[2,3-b]pyridin-5-yl)oxy)-N-(((R)-3-(((1r, 4R)-4-hydroxycyclohexyl)methyl)-5-nitro-3,4-dihydro-2H-benzo[b][1,4]oxazin-7-yl)sulfonyl)-4-(2-(2-(2-isopropylphenyl)-4-(2-methoxyethyl)piperazin-1-yl)-7-azaspiro[3.5]nonan-7-yl)benzamide]",0.0065,0.0065,0.093,14.3,0.45,5.16,0.084,13,–,–
"CC(C)c1ccccc1C1CN(CC2CCCCC2)CCN1C1CC2(CCN(c3ccc(C(=O)NS(=O)(=O)c4ccc(NC[C@H]5CC[C@](C)(O)CC5)c([N+](=O)[O-])c4)c(Oc4cnc5[nH]ccc5c4)c3)CC2)C1 (stereo partly drawn) [Example 16, 2-((1H-pyrrolo[2,3-b]pyridin-5-yl)oxy)-4-(2-(4-(cyclohexylmethyl)-2-(2-isopropylphenyl)piperazin-1-yl)-7-azaspiro[3.5]nonan-7-yl)-N-((4-((((1r,4r)-4-hydroxy-4-methylcyclohexyl)methyl)amino)-3-nitrophenyl)sulfonyl)benzamide]",0.26,0.26,1.7,6.5,0.81,8.6,0.63,2.5,much lower,significantly lower
"CC(C)c1ccccc1C1CN(CC23CC(C2)C3)CCN1C1CC2(CCN(c3ccc(C(=O)NS(=O)(=O)c4ccc(NC[C@H]5CC[C@](C)(O)CC5)c([N+](=O)[O-])c4)c(Oc4cnc5[nH]ccc5c4)c3)CC2)C1 (stereo partly drawn) [Example 18, 2-((1H-pyrrolo[2,3-b]pyridin-5-yl)oxy)-4-(2-(4-(bicyclo[1.1.1]pentan-1-ylmethyl)-2-(2-isopropylphenyl)piperazin-1-yl)-7-azaspiro[3.5]nonan-7-yl)-N-((4-((((1r,4r)-4-hydroxy-4-methylcyclohexyl)methyl)amino)-3-nitrophenyl)sulfonyl)benzamide]",0.079,0.079,0.71,9.0,0.61,4.9,0.43,5.4,–,–
"COc1ccc(CN2CCN(C3CC4(CCN(c5ccc(C(=O)NS(=O)(=O)c6ccc(NC[C@H]7CC[C@](C)(O)CC7)c([N+](=O)[O-])c6)c(Oc6cnc7[nH]ccc7c6)c5)CC4)C3)[C@@H](c3ccccc3C(C)C)C2)cc1 [Example 19b, 2-((1H-pyrrolo[2,3-b]pyridin-5-yl)oxy)-N-((4-((((1r,4r)-4-hydroxy-4-methylcyclohexyl)methyl)amino)-3-nitrophenyl)sulfonyl)-4-(2-((S)-2-(2-isopropylphenyl)-4-(4-methoxybenzyl)piperazin-1-yl)-7-azaspiro[3.5]nonan-7-yl)benzamide]",0.16,0.16,10,62.5,6.8,44,16,100,–,–
"CC(C)c1ccccc1C1CN(Cc2ccoc2)CCN1C1CC2(CCN(c3ccc(C(=O)NS(=O)(=O)c4ccc(NC[C@H]5CC[C@](C)(O)CC5)c([N+](=O)[O-])c4)c(Oc4cnc5[nH]ccc5c4)c3)CC2)C1 (stereo partly drawn) [Example 20, 2-((1H-pyrrolo[2,3-b]pyridin-5-yl)oxy)-4-(2-(4-(furan-3-ylmethyl)-2-(2-isopropylphenyl)piperazin-1-yl)-7-azaspiro[3.5]nonan-7-yl)-N-((4-((((1r,4r)-4-hydroxy-4-methylcyclohexyl)methyl)amino)-3-nitrophenyl)sulfonyl)benzamide]",0.053,0.053,0.58,10.9,0.62,5.91,0.25,4.6,–,–
"CC(C)c1ccccc1C1CN(Cc2cnn(C)c2)CCN1C1CC2(CCN(c3ccc(C(=O)NS(=O)(=O)c4ccc(NC[C@H]5CC[C@](C)(O)CC5)c([N+](=O)[O-])c4)c(Oc4cnc5[nH]ccc5c4)c3)CC2)C1 (stereo partly drawn) [Example 22, 2-((1H-pyrrolo[2,3-b]pyridin-5-yl)oxy)-N-((4-((((1r,4r)-4-hydroxy-4-methylcyclohexyl)methyl)amino)-3-nitrophenyl)sulfonyl)-4-(2-(2-(2-isopropylphenyl)4-((1-methyl-1H-pyrazol-4-yl)methyl)piperazin-1-yl)-7-azaspiro[3.5]nonan-7-yl) benzamide]",0.013,0.013,0.079,6.1,0.46,2.6,0.12,9.2,–,–
"CC(C)c1ccccc1C1CN(Cc2ccccc2)CCN1C1CC2(CCN(c3ccc(C(=O)NS(=O)(=O)c4ccc(NC[C@H]5CC[C@](C)(O)CC5)c([N+](=O)[O-])c4)c(Oc4cnc5[nH]ccc5c4)c3)CC2)C1 (stereo partly drawn) [Example 23, 2-((1H-pyrrolo[2,3-b]pyridin-5-yl)oxy)-4-(2-(4-benzyl-2-(2-isopropylphenyl)piperazin-1-yl)-7-azaspiro[3.5]nonan-7-yl)-N-((4-((((1r,4r)-4-hydroxy-4-methylcyclohexyl)methyl)amino)-3-nitrophenyl)sulfonyl)benzamide]",0.45,0.13,2.1,4.7,0.39,2.66,0.26,2,much lower,significantly lower
"CC(C)c1ccccc1C1CN(CCc2ccccc2)CCN1C1CC2(CCN(c3ccc(C(=O)NS(=O)(=O)c4ccc(NC[C@H]5CC[C@](C)(O)CC5)c([N+](=O)[O-])c4)c(Oc4cnc5[nH]ccc5c4)c3)CC2)C1 (stereo partly drawn) [Example 26, 2-((1H-pyrrolo[2,3-b]pyridin-5-yl)oxy)-N-((4-((((1r,4r)-4-hydroxy-4-methylcyclohexyl)methyl)amino)-3-nitrophenyl)sulfonyl)-4-(2-(2-(2-isopropylphenyl)-4-phenethylpiperazin-1-yl)-7-azaspiro[3.5]nonan-7-yl)benzamide]",0.11,0.11,1.4,12.7,0.85,8.48,0.51,4.7,–,–
"CC(C)c1ccccc1C1CN(Cc2ccccc2)CCN1C1CC2(CCN(c3ccc(C(=O)NS(=O)(=O)c4ccc(NCC5(F)CCOCC5)c([N+](=O)[O-])c4)c(Oc4cnc5[nH]ccc5c4)c3)CC2)C1 (stereo not drawn) [Example 27, 2-((1H-pyrrolo[2,3-b]pyridin-5-yl)oxy)-4-(2-(4-benzyl-2-(2-isopropylphenyl)piperazin-1-yl)-7-azaspiro[3.5]nonan-7-yl)-N-((4-(((4-fluorotetrahydro-2H-pyran-4-yl)methyl)amino)-3-nitrophenyl)sulfonyl)benzamide]",0.27,0.27,2.7,10.0,1.05,7.77,0.49,1.8,–,–
